pIC50: −log10 of the molar value. Read-outs that look alike come from different tables or passages of the source.
Experiments:
OCI-LY10 cells = test: Inhibitory activity on OCI-LY10 cell proliferation (CCK-8); assay type: cell-based
Procedure: (§1) OCI-LY10 cells in a good growth state were collected and added to a centrifuge tube, adjusted to a cell density of 1×10^5 cells/mL, and seeded in a 96-well plate (100 μL/well). The cells were incubated overnight in a cell incubator. Compounds were added using a nanoliter pipettor such that the final concentrations of the compounds were 5000 nM-0.31 nM; the addition was performed in duplicate, and meanwhile, a control was set. After another 72 h of incubation in the cell incubator, 10 μL of CCK-8 (CK04, PP799) was added. After 2.5 h of incubation in the cell incubator, absorbance values were detected at 450 nm using an Envision microplate reader, the four-parameter analysis was performed, the dose-response curves were fit, and IC50 was calculated.

[1] = In vitro liver microsomal stability, mouse; details: 0.5 mg/mL microsomes, NADPH, 37° C., 1 h
Procedure: (§2) Liver microsome incubation samples were prepared by mixing a PBS buffer (pH 7.4), a liver microsome solution (0.5 mg/mL), a test compound, and an NADPH+MgCl2 solution and incubated at 37° C. and 300 rpm for 1 h. Zero-hour samples were prepared by mixing a PBS buffer (pH 7.4), a liver microsome solution (0.5 mg/mL), and a test compound. An acetonitrile solution containing an internal standard was added to the samples, and supernatants were prepared by protein precipitation, diluted, and then assayed by LC/MS/MS.

BTK = BTK (Homo sapiens (Human), UniProt Q06187); test: BTK degradation in OCI-LY10 cells (Total-BTK HTRF kit); assay type: cell-based; details: 24 (or 6) h incubation; for DC50 / BTK degradation in OCI-LY10 cells Dmax: OCI-LY10 cells; for DC50: DC50 = concentration when degradation rate reaches 50%, read-out: OCI-LY10 cell BTK degradation DC50; for Dmax: OCI-Ly10, OCI-LY10 cells; for Dmax / BTK degradation in OCI-LY10 cells Dmax: maximum degradation rate
Sequence of BTK (Q06187 whole entry): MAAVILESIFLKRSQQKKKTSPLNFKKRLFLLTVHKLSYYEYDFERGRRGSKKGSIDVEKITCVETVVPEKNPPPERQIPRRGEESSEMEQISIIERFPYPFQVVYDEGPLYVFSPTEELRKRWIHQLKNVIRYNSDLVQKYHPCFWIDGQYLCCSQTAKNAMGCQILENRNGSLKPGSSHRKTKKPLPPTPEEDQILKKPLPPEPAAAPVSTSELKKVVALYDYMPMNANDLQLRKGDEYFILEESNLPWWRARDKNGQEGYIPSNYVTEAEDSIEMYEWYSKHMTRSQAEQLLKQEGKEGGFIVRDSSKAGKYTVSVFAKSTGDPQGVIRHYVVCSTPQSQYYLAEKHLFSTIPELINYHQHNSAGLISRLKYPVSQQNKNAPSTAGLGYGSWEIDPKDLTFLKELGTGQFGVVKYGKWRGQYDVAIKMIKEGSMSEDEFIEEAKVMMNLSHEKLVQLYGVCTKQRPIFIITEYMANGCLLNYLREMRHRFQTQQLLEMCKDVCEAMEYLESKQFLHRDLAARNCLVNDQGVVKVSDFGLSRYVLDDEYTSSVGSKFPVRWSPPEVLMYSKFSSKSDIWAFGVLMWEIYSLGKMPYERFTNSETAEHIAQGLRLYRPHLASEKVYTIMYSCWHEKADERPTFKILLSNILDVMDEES
Procedure: The detection was carried out using the Total-BTK Kits (cisbio, 63ADK064PEH), and 4× Supplemented Lysis buffer was prepared using the Blocking reagent stock solution (100×) and Lysis buffer stock solution (4×). Premixed antibody solutions were prepared using the Detection buffer, Total-BTK d2 antibody, and Total-BTK Eu Cryptate antibody.
OCI-LY10 cells in a good growth state were collected and added to a centrifuge tube, adjusted to a cell density of 4.17×10^6 cells/mL, and seeded in a 384-well plate (12 μL/well). The cells were incubated overnight in a cell incubator. Compounds were added using a nanoliter pipettor such that the final concentrations of the compounds were 100 nM-0.098 nM; the addition was performed in duplicate, and meanwhile, a control was set. After another 24 (or 6) h of incubation in the cell incubator, the 4× Supplemented Lysis buffer was added at 4 μL/well to lyse the cells. After the cells were shaken for 40 min at room temperature, the Premixed antibody solutions were added at 4 μL/well, and the cells were left to stand overnight at room temperature. Fluorescence values of the cells were detected at 665 nm/620 nm using an Envision microplate reader, the four-parameter analysis was performed, the dose-response curves were fit, and DC50 (the concentration of the drug when the degradation rate reaches 50%) and Dmax (the maximum degradation rate) were calculated.

TMD8-BTK(C481S) cells = test: Inhibitory activity on TMD8-BTK(C481S) cell proliferation (CCK-8); assay type: cell-based; details: 72 h incubation
Procedure: as §1, with “TMD8-BTK(C481S)” for “OCI-LY10”, “8×10^4” for “1×10^5”, “4” for “2.5”

[2] = tested on: OCI-LY10-BTK(C481S) cells; test: Inhibitory activity on OCI-LY10-BTK(C481S) cell proliferation (CCK-8); assay type: cell-based; details: 72 h incubation, IC50 per method, unit inferred
Procedure: OCI-LY10(C481S) cells in the logarithmic growth phase were collected and added to a centrifuge tube, adjusted to a cell density of 5×10^4 cells/mL, and seeded in a 96-well plate (100 μL/well). Meanwhile, compounds were added using a nanoliter pipettor such that the final concentrations of the compounds were 5000 nM-0.31 nM; the addition was performed in duplicate, and meanwhile, a control was set. After another 72 h of incubation in the cell incubator, the detection reagent CCK-8 (manufacturer: Dojindo Laboratories, Beijing; 10 μL/well) was added. After 3 h of incubation in the cell incubator, absorbance values were detected at 450 nm using a PerkinElmer Envision microplate reader, the four-parameter analysis was performed, the dose-response curves were fit, and IC50 was calculated.

TMD-8 xenograft tumors = test: In vivo drug efficacy, TMD-8 mouse subcutaneous xenograft tumors; set-up: species or system NOD-SCID mice; details: 30 mg/kg, qd, i.g.; for TGI d 17: 16 days, tumor weight on day 17; for TV on d 0 Mean ± SD: day 0 (baseline at grouping); for TV on d 12 Mean ± SD: day 12; for TV on d 15 Mean ± SD: day 15
Procedure: TMD-8 mouse subcutaneous xenograft tumors: TMD-8 (WT) cells at a concentration of 1×10^8/mL were inoculated under aseptic conditions into the right side armpit of NOD-SCID mice at 0.1 mL/mouse. After subcutaneous grafting, the animals were divided into groups with 6 animals in each group when the tumor volume reached about 188 mm^3 (or 200 mm^3):
model group: vehicle, 6 mice; compound administration groups: 30 mg/kg, qd, i.g., 6 mice.
The vehicle or the test compound was intragastrically given at a volume of 4 mL/kg, once daily for 16 consecutive days. The tumor volume was measured 2-3 times a week, and meanwhile, the mice were weighed and the data were recorded; the general behaviors of the animals were observed every day. After all dosing was complete, the animals were sacrificed on day 17, and the tumors were removed and weighed.
The tumor volume and the tumor growth inhibition were calculated using the following formulae:
Tumor volume (TV)=(Length×Width^2)/2.
Tumor growth inhibition (TGI)=(1−tumor weight of treatment group/tumor weight of model group)×100%.

[3] = In vitro liver microsomal stability, human; assay type: in vitro ADME; details: 0.5 mg/mL microsomes, NADPH, 37° C., 1 h
Procedure: as §2

Mouse pharmacokinetics = assay type: in vivo, ICR mice
Procedure: ICR mice weighing 18-22 g were randomized into groups of 9 after 3-5 days of acclimatization and then intragastrically given the test compound solution at a dose of 10 mg/kg. Plasma samples to be tested were prepared by taking blood from the orbit at time points of 15 min, 30 min, 1 h, 2 h, 3 h, 4 h, 6 h, 8 h, 10 h, and 24 h. 20 μL of each plasma sample to be detected and a standard curve sample were taken, and an acetonitrile solution containing an internal standard was added. […] Pharmacokinetic parameters were fitted using a non-compartmental model (see Table 5).

[4] = Homo sapiens, OCI-Ly10, 72 h incubation
[5] = ICR, mouse, plasma, iv, 1 mg/kg, Mouse i.v. 1 mpk
[6] = ICR, mouse, plasma, iv, 1 mg/kg, Mouse i.v. 1 mpk, read-out: AUC
[7] = ICR, mouse, plasma, po, 10 mg/kg, Mouse i.g. 10 mpk
[8] = ICR, mouse, plasma, po, 10 mg/kg, Mouse i.g. 10 mpk, read-out: AUC
[9] = ICR, mouse, plasma, po, 10 mg/kg, Mouse i.g. 10 mpk, read-out: Cmax

SMILES: CN1CCN([C@@H]2CCCN(c3cnc(C(N)=O)c(Nc4ccc(C5CCN(C[C@@H]6CCC(c7ccc8c(C9CCC(=O)NC9=O)noc8c7)C6)CC5)cc4)n3)C2)C1=O (some centres unmarked) [Compound 7]
- pIC50 (OCI-LY10 cells; [4]): > 9.51
- Mouse liver microsome Residuals at 60 min [1]: 42.7%
- DC50 (BTK): < 0.098 nM
- Dmax (BTK): 99%

SMILES: CN1CCN([C@@H]2CCCN(c3cnc(C(N)=O)c(Nc4ccc(C5CCN(CC6CCN(c7ccc8c(C9CCC(=O)NC9=O)noc8c7)CC6)CC5)cc4)n3)C2)C1=O (some centres unmarked) [Compound 8]
- pIC50 (OCI-LY10 cells; [4]): > 9.51
- Mouse liver microsome Residuals at 60 min [1]: 54.7%
- pIC50 (TMD8-BTK(C481S) cells; 72 h): 8.16
- DC50 (BTK): < 0.098 nM
- Dmax (BTK): 99%

SMILES: CN1CCN([C@@H]2CCCN(c3cnc(C(N)=O)c(Nc4ccc(C5CCN(C[C@@H]6CCC(c7cc8onc(C9CCC(=O)NC9=O)c8c8cc[nH]c78)C6)CC5)cc4)n3)C2)C1=O (some centres unmarked) [Compound 13]
- pIC50 (OCI-LY10 cells; 72 h incubation): > 9.51
- Mouse liver microsome Residuals at 60 min [1]: 56.41%
- pIC50 [2]: > 9.51
- DC50 (BTK): < 0.098 nM
- BTK degradation in OCI-LY10 cells Dmax (BTK): 100%

SMILES: CN1CCN([C@@H]2CCCN(c3cnc(C(N)=O)c(Nc4ccc(C5CCN(C[C@@H]6CCC(c7cc8[nH]ccc8c8c(C9CCC(=O)NC9=O)noc78)C6)CC5)cc4)n3)C2)C1=O (some centres unmarked) [Compound 14]
- pIC50 (OCI-LY10 cells; 72 h incubation): > 9.51
- Mouse liver microsome Residuals at 60 min [1]: 62.41%
- pIC50 [2]: > 9.51
- DC50 (BTK): < 0.098 nM
- BTK degradation in OCI-LY10 cells Dmax (BTK): 100%

SMILES: NC(=O)c1ncc(N2CCCCC2)nc1Nc1ccc(C2CCN(C3Cc4ccc5c(C6CCC(=O)NC6=O)noc5c4C3)CC2)cc1 (centres unmarked) [Compound 69]
- Mouse liver microsome Residuals at 60 min [1]: 85.0%
- TGI d 17 (TMD-8 xenograft tumors): 96.4%
- TV on d 0 Mean ± SD (TMD-8 xenograft tumors): 226 ± 21 mm^3
- TV on d 12 Mean ± SD (TMD-8 xenograft tumors): 246 ± 56 mm^3
- TV on d 15 Mean ± SD (TMD-8 xenograft tumors): 199 ± 72 mm^3
- pIC50 (TMD8-BTK(C481S) cells): 8.24
- Human liver microsome Residuals at 60 min [3]: 80.0%
- clearance (Mouse pharmacokinetics; [5]): 2 mL/min/kg
- half-life (Mouse pharmacokinetics; [5]): 2.6 h
- AUC (Mouse pharmacokinetics; [6]): 8030 ng·h/mL
- half-life (Mouse pharmacokinetics; [7]): 7 h
- AUC (Mouse pharmacokinetics; [8]): 41400 ng·h/mL
- Cmax (Mouse pharmacokinetics; [9]): 2730 ng/mL
- F (Mouse pharmacokinetics; Mouse i.g. 10 mpk): 51.6%

SMILES: NC(=O)c1ncc(N2CCCCC2)nc1Nc1ccc(N2CCC(CN3CCc4ccc5c(C6CCC(=O)NC6=O)noc5c4CC3)CC2)cc1 (centres unmarked) [Compound 72]
- TGI d 17 (TMD-8 xenograft tumors): 97.9%
- TV on d 0 Mean ± SD (TMD-8 xenograft tumors): 226 ± 21 mm^3
- TV on d 12 Mean ± SD (TMD-8 xenograft tumors): 246 ± 52 mm^3
- TV on d 15 Mean ± SD (TMD-8 xenograft tumors): 122 ± 78 mm^3
- pIC50 (TMD8-BTK(C481S) cells; 72 h): 8.59
- Human liver microsome Residuals at 60 min [3]: 94.0%
- clearance (Mouse pharmacokinetics; [5]): 12 mL/min/kg
- half-life (Mouse pharmacokinetics; [5]): 2.3 h
- AUC (Mouse pharmacokinetics; [6]): 1290 ng·h/mL
- half-life (Mouse pharmacokinetics; [7]): 4.6 h
- AUC (Mouse pharmacokinetics; [8]): 8300 ng·h/mL
- Cmax (Mouse pharmacokinetics; [9]): 634 ng/mL
- F (Mouse pharmacokinetics; Mouse i.g. 10 mpk): 64.50%
- Dmax (BTK): > 90%

SMILES: CN1CCN([C@@H]2CCCN(c3cnc(C(N)=O)c(Nc4ccc(C5CCN(CC6Cc7ccc8c(C9CCC(=O)NC9=O)noc8c7C6)CC5)cc4)n3)C2)C1=O (some centres unmarked) [Compound 90]
- pIC50 (OCI-LY10 cells; 72 h incubation): > 9.51
- Mouse liver microsome Residuals at 60 min [1]: 54.63%
- pIC50 (TMD8-BTK(C481S) cells): 8.92
- AUC (Mouse pharmacokinetics; Mouse i.g. 10 mpk): 18944 ng·h/mL
- Cmax (Mouse pharmacokinetics; Mouse i.g. 10 mpk): 2550 ng/mL
- F (Mouse pharmacokinetics; Mouse i.g. 10 mpk): 21.0%
- t1/2 (Mouse pharmacokinetics; Mouse i.g. 10 mpk): 3 h
- AUC (Mouse pharmacokinetics; Mouse i.v. 1 mpk): 8882 ng·h/mL
- Cl (Mouse pharmacokinetics; Mouse i.v. 1 mpk): 1.83 mL/min/kg
- t1/2 (Mouse pharmacokinetics; Mouse i.v. 1 mpk): 2.7 h
- BTK degradation in OCI-LY10 cells Dmax (BTK): >90%

SMILES: CN1CCN([C@@H]2CCCN(c3cnc(C(N)=O)c(Nc4ccc(C5CCN(C6CN(c7cc8onc(C9CCC(=O)NC9=O)c8c8ccccc78)C6)CC5)cc4)n3)C2)C1=O (some centres unmarked) [Compound 93]
- Mouse liver microsome Residuals at 60 min [1]: 72.0%
- pIC50 ([2]; 72 h): 9.15
- Human liver microsome Residuals at 60 min [3]: 53.0%
- Dmax (BTK): > 90%

SMILES: NC(=O)c1ncc(N2CCCCC2)nc1Nc1ccc(C2CCN(CC3CN(c4ccc5c(C6CCC(=O)NC6=O)noc5c4)C3)CC2)cc1 (centres unmarked) [Compound 94]
- pIC50 (OCI-LY10 cells; [4]): > 9.51
- Mouse liver microsome Residuals at 60 min [1]: 75.0%
- pIC50 ([2]; 72 h): 9.28
- Human liver microsome Residuals at 60 min [3]: 81.0%
- Dmax (BTK): > 90%

SMILES: CN1CCN([C@@H]2CCCN(c3cnc(C(N)=O)c(Nc4ccc(C5CCN(CC6CN(c7cc8onc(C9CCC(=O)NC9=O)c8c8ccccc78)C6)CC5)cc4)n3)C2)C1=O (some centres unmarked) [Compound 96]
- pIC50 (OCI-LY10 cells; [4]): > 9.51
- pIC50 ([2]; 72 h): 9.51
- Dmax (BTK): > 90%

SMILES: NC(=O)c1ncc(N2CCCCC2)nc1Nc1ccc(C2CCN(C[C@@H]3CC[C@@H](n4ccc5c6c(C7CCC(=O)NC7=O)noc6ccc54)C3)CC2)cc1 (some centres unmarked) [Compound 104]
- TGI d 17 (TMD-8 xenograft tumors): 96.0%
- TV on d 0 Mean ± SD (TMD-8 xenograft tumors): 226 ± 27 mm^3
- TV on d 12 Mean ± SD (TMD-8 xenograft tumors): 286 ± 77 mm^3
- TV on d 15 Mean ± SD (TMD-8 xenograft tumors): 269 ± 61 mm^3
- pIC50 (TMD8-BTK(C481S) cells; 72 h): 7.80

SMILES: NC(=O)c1ncc(N2CCCCC2)nc1Nc1ccc(C2CCN(C[C@@H]3CC[C@H](n4ccc5c6c(C7CCC(=O)NC7=O)noc6ccc54)C3)CC2)cc1 (some centres unmarked) [Compound 105]
- TGI d 17 (TMD-8 xenograft tumors): 95.4%
- TV on d 0 Mean ± SD (TMD-8 xenograft tumors): 226 ± 28 mm^3
- TV on d 12 Mean ± SD (TMD-8 xenograft tumors): 253 ± 36 mm^3
- TV on d 15 Mean ± SD (TMD-8 xenograft tumors): 229 ± 49 mm^3
- pIC50 (TMD8-BTK(C481S) cells; 72 h): 8.16
